Reference: the NIST ThermoML archive (doi:10.1021/je900916e)

Assay: cn = amount concentration of the nth substance listed, in mol/dm3
Conditions: 101 kPa, Liquid, Advanced Condctivity Orion 162A

N.O=C(O)C(F)(F)C(F)(F)C(F)(F)C(F)(F)C(F)(F)C(F)(F)C(F)(F)F [ammonium perfluorooctanoate] + O
Conditions | electrical conductivity [S/m]
288.15 K, c1 = 0.002632 | 0.019
288.15 K, c1 = 0.005195 | 0.0351
288.15 K, c1 = 0.007692 | 0.051
288.15 K, c1 = 0.01013 | 0.0665
288.15 K, c1 = 0.0125 | 0.0805
288.15 K, c1 = 0.01481 | 0.0943
288.15 K, c1 = 0.01707 | 0.1074
288.15 K, c1 = 0.01928 | 0.1198
288.15 K, c1 = 0.02143 | 0.1318
288.15 K, c1 = 0.02353 | 0.1429
288.15 K, c1 = 0.02558 | 0.1533
288.15 K, c1 = 0.02759 | 0.163
288.15 K, c1 = 0.02955 | 0.1691
288.15 K, c1 = 0.03146 | 0.174
288.15 K, c1 = 0.03333 | 0.1785
288.15 K, c1 = 0.03516 | 0.1828
288.15 K, c1 = 0.03696 | 0.187
288.15 K, c1 = 0.03957 | 0.1926
288.15 K, c1 = 0.04211 | 0.1982
288.15 K, c1 = 0.04456 | 0.2036
288.15 K, c1 = 0.04694 | 0.209
288.15 K, c1 = 0.05 | 0.2155
288.15 K, c1 = 0.05294 | 0.2216
288.15 K, c1 = 0.05577 | 0.2275
293.15 K, c1 = 0.002632 | 0.021
293.15 K, c1 = 0.005195 | 0.0402
293.15 K, c1 = 0.007692 | 0.0582
293.15 K, c1 = 0.01013 | 0.0753
293.15 K, c1 = 0.0125 | 0.092
293.15 K, c1 = 0.01481 | 0.1078
293.15 K, c1 = 0.01707 | 0.1224
293.15 K, c1 = 0.01928 | 0.1364
293.15 K, c1 = 0.02143 | 0.1498
293.15 K, c1 = 0.02353 | 0.1625
293.15 K, c1 = 0.02558 | 0.1735
293.15 K, c1 = 0.02759 | 0.1815
293.15 K, c1 = 0.02955 | 0.1888
293.15 K, c1 = 0.03146 | 0.1942
293.15 K, c1 = 0.03333 | 0.1995
293.15 K, c1 = 0.03516 | 0.2045
293.15 K, c1 = 0.03696 | 0.209
293.15 K, c1 = 0.03957 | 0.216
293.15 K, c1 = 0.04211 | 0.222
293.15 K, c1 = 0.04536 | 0.231
293.15 K, c1 = 0.04848 | 0.239
293.15 K, c1 = 0.05149 | 0.247
293.15 K, c1 = 0.05437 | 0.2545
298.15 K, c1 = 0.002817 | 0.0241
298.15 K, c1 = 0.005556 | 0.0457
298.15 K, c1 = 0.008219 | 0.0665
298.15 K, c1 = 0.01081 | 0.0848
298.15 K, c1 = 0.01333 | 0.1033
298.15 K, c1 = 0.01579 | 0.1221
298.15 K, c1 = 0.01818 | 0.1411
298.15 K, c1 = 0.02051 | 0.1577
298.15 K, c1 = 0.02278 | 0.1735
298.15 K, c1 = 0.025 | 0.1884
298.15 K, c1 = 0.02716 | 0.199
298.15 K, c1 = 0.02927 | 0.2067
298.15 K, c1 = 0.03132 | 0.2144
298.15 K, c1 = 0.03333 | 0.2207
298.15 K, c1 = 0.03529 | 0.2269
298.15 K, c1 = 0.03721 | 0.2337
298.15 K, c1 = 0.03908 | 0.2394
298.15 K, c1 = 0.04091 | 0.2452
298.15 K, c1 = 0.0427 | 0.251
298.15 K, c1 = 0.04444 | 0.2558
298.15 K, c1 = 0.04699 | 0.2635
298.15 K, c1 = 0.04946 | 0.2721
298.15 K, c1 = 0.05185 | 0.2798
298.15 K, c1 = 0.05417 | 0.2856
298.15 K, c1 = 0.05641 | 0.2923
303.15 K, c1 = 0.002632 | 0.0264
303.15 K, c1 = 0.005195 | 0.0503
303.15 K, c1 = 0.007692 | 0.0726
303.15 K, c1 = 0.01013 | 0.0937
303.15 K, c1 = 0.0125 | 0.1137
303.15 K, c1 = 0.01481 | 0.1325
303.15 K, c1 = 0.01707 | 0.1505
303.15 K, c1 = 0.01928 | 0.1679
303.15 K, c1 = 0.02143 | 0.1833
303.15 K, c1 = 0.02353 | 0.1983
303.15 K, c1 = 0.02558 | 0.2125
303.15 K, c1 = 0.02759 | 0.221
303.15 K, c1 = 0.02955 | 0.229
303.15 K, c1 = 0.03146 | 0.236
303.15 K, c1 = 0.03333 | 0.243
303.15 K, c1 = 0.03516 | 0.2495
303.15 K, c1 = 0.03696 | 0.256
303.15 K, c1 = 0.03957 | 0.2645
303.15 K, c1 = 0.04211 | 0.273
303.15 K, c1 = 0.04456 | 0.281
303.15 K, c1 = 0.04694 | 0.289
303.15 K, c1 = 0.05 | 0.299
303.15 K, c1 = 0.05294 | 0.309
303.15 K, c1 = 0.05577 | 0.3185
308.15 K, c1 = 0.002632 | 0.0291
308.15 K, c1 = 0.005195 | 0.0556
308.15 K, c1 = 0.007692 | 0.0802
308.15 K, c1 = 0.01013 | 0.1034
308.15 K, c1 = 0.0125 | 0.1244
308.15 K, c1 = 0.01481 | 0.1452
308.15 K, c1 = 0.01707 | 0.165
308.15 K, c1 = 0.01928 | 0.1844
308.15 K, c1 = 0.02143 | 0.203
308.15 K, c1 = 0.02353 | 0.22
308.15 K, c1 = 0.02558 | 0.232
308.15 K, c1 = 0.02759 | 0.242
308.15 K, c1 = 0.02955 | 0.251
308.15 K, c1 = 0.03146 | 0.259
308.15 K, c1 = 0.03333 | 0.267
308.15 K, c1 = 0.03516 | 0.274
308.15 K, c1 = 0.03696 | 0.281
308.15 K, c1 = 0.03957 | 0.291
308.15 K, c1 = 0.04211 | 0.301
308.15 K, c1 = 0.04456 | 0.3105
308.15 K, c1 = 0.04772 | 0.322
308.15 K, c1 = 0.05075 | 0.333
308.15 K, c1 = 0.05366 | 0.344
313.15 K, c1 = 0.002632 | 0.0318
313.15 K, c1 = 0.005195 | 0.0606
313.15 K, c1 = 0.007692 | 0.0875
313.15 K, c1 = 0.01013 | 0.1126
313.15 K, c1 = 0.0125 | 0.1364
313.15 K, c1 = 0.01481 | 0.1592
313.15 K, c1 = 0.01707 | 0.1811
313.15 K, c1 = 0.01928 | 0.2025
313.15 K, c1 = 0.02143 | 0.223
313.15 K, c1 = 0.02353 | 0.241
313.15 K, c1 = 0.02558 | 0.256
313.15 K, c1 = 0.02759 | 0.267
313.15 K, c1 = 0.02955 | 0.277
313.15 K, c1 = 0.03146 | 0.286
313.15 K, c1 = 0.03333 | 0.295
313.15 K, c1 = 0.03516 | 0.303
313.15 K, c1 = 0.03696 | 0.311
313.15 K, c1 = 0.03957 | 0.322
313.15 K, c1 = 0.04211 | 0.333
313.15 K, c1 = 0.04456 | 0.344
313.15 K, c1 = 0.04694 | 0.354
313.15 K, c1 = 0.05 | 0.367
313.15 K, c1 = 0.05294 | 0.38
318.15 K, c1 = 0.002632 | 0.0344
318.15 K, c1 = 0.005195 | 0.0656
318.15 K, c1 = 0.007692 | 0.0948
318.15 K, c1 = 0.01013 | 0.1225
318.15 K, c1 = 0.0125 | 0.1474
318.15 K, c1 = 0.01481 | 0.1726
318.15 K, c1 = 0.01707 | 0.1968
318.15 K, c1 = 0.01928 | 0.219
318.15 K, c1 = 0.02143 | 0.241
318.15 K, c1 = 0.02353 | 0.262
318.15 K, c1 = 0.02558 | 0.279
318.15 K, c1 = 0.02759 | 0.292
318.15 K, c1 = 0.02955 | 0.303
318.15 K, c1 = 0.03146 | 0.313
318.15 K, c1 = 0.03333 | 0.323
318.15 K, c1 = 0.03516 | 0.3325
318.15 K, c1 = 0.03696 | 0.3415
318.15 K, c1 = 0.03957 | 0.3535
318.15 K, c1 = 0.04211 | 0.3655
318.15 K, c1 = 0.04456 | 0.377
318.15 K, c1 = 0.04772 | 0.3915
318.15 K, c1 = 0.05074 | 0.4055
318.15 K, c1 = 0.05366 | 0.419
